Test results published in patent publication US4937239A, “Azabicycloalkane oxime & azabicycloalkene oxime muscarinic agents” (Warner-Lambert Company, priority 1989, dated 1990).

How the values were obtained:
[1] = in vivo; cited from earlier work
[2] = target: central muscarinic binding site; assay: RQNB screening assay: inhibition of radio-labeled quinuclidinyl benzilate (antagonist) binding, rat cerebral cortex tissue; conditions: R3 is hydrogen, double bond: No; for IC50: rat cerebral cortex; for % Inhib. RQNB: @ 10^-6 M
Procedure: (§1) The biological activity of compounds of the present invention was evaluated using a number of tests. The activity of compounds of this invention as central muscarinic binding site agonists and antagonists was measured. In the RQNB screening assay, which is described more fully by Mark Watson, et al, J. Pharmocol. Exp. Ther., 237 (2): 411 (1986), rat cerebral cortex tissue was treated with radio-labeled quinuclidinyl benzilate, a known muscarinic binding site antagonist. The % inhibition concentration of test compound required to inhibit 50% of the binding of this muscarinic antagonist was then determined.

[3] = target: central muscarinic binding site; assay: RCMD screening assay: inhibition of radio-labeled cis-methyldioxolane (agonist) binding, rat cerebral cortex tissue; conditions: R3 is hydrogen, double bond: No; for IC50: rat cerebral cortex; for % Inhib. RCMD: @ 10^-7 M
Procedure: as §1
Similarly, in the RCMD screening assay, described more fully by T. W. Vickeroy, et al, J. Pharmacol. Exp. Ther., 229 (3): 747 (1984), rat cerebral cortex tissue was treated with radio-labeled cis-methyldioxolane,a known muscarinic binding site agonist. The concentrations of test compounds required to inhibit 50% of the binding of this muscarinic agonist were then determined.

[4] = tested on: laboratory rats; assay: SIS, scopolamine induced swimming test; format: in vivo, rat; conditions: for reversal of scopolamine-induced swimming hyperactivity: rats given scopolamine
Procedure: In a second screening assay, designated SIS, the scopolamine induced swimming test, the ability of representative compounds of the present invention to reverse the hyperactive swimming behavior of laboratory rats given scopolamine was assessed. In this test, untreated rats will generally swim distances between 20 to 30 meters during a five minute test period. […] The effect of scopolamine is centrally mediated; the ability of a test compound to reverse the hyperactive swimming behavior induced by scopolamine is thus a measure of the central cholinergic activity of the compound.

[5] = tested on: patients clinically diagnosed as having presenile primary degenerative dementia; conditions: cited from earlier work
[6] = tested on: Aged humans and nonhuman primates; conditions: aged humans and nonhuman primates with decreased cognition; cited from earlier work

## Nc1ccncc1N [3,4-diaminopyridine]
[1]
  age-related cognitive deficits: ameliorate age-related cognitive deficits

## C#CCON=CC1CN2CCC1CC2 (stereo not drawn) [R1 = Hydrogen, R2 = 2-Propynyl, 1-Azabicyclo[2.2.2]octane-3-carboxaldehyde, O-2-propynyloxime]
[2]
  IC50: 348 nM
[3]
  IC50: 27 nM

## C=CCON=CC1CN2CCC1CC2 (stereo not drawn) [R1 = Hydrogen, R2 = Allyl, 1-Azabicyclo[2.2.2]octane-3-carboxaldehyde, O-2-propenyloxime]
[2]
  IC50: 146 nM
[3]
  IC50: 117 nM

## CON=CC1CN2CCC1CC2 (stereo not drawn) [R1 = Hydrogen, R2 = Methyl, 1-Azabicyclo[2.2.2]octane-3-carboxaldehyde, O-methyloxime]
[4]; Rattus norvegicus, PO, laboratory rats, read-out: ED50 required to demonstrate reversal of the scopolamine-induced hyperactive swimming activity
  ED50: 1.8 mg/kg
[2]
  IC50: 1360 nM
[3]
  IC50: 11.8 nM

## C#CCON=C(C)C1CN2CCC1CC2 (stereo not drawn) [R1 = Methyl, R2 = 2-Propynyl, Ethanone,1-(1-Azabicyclo[2.2.2]oct-3-yl)-, O-2-propynyloxime]
[2]
  % Inhib. RQNB: 81%
[3]
  % Inhib. RCMD: 78%

## CON=C(C)C1CN2CCC1CC2 (stereo not drawn) [R1 = Methyl, R2 = Methyl, Ethanone,1-(1-Azabicyclo[2.2.2]oct-3-yl)-, O-methyloxime]
[2]
  % Inhib. RQNB: 54%
[3]
  % Inhib. RCMD: 90%

## COC(=O)C1=CCCN(C)C1 [arecoline, methyl ester of 1,2,5,6-tetrahydro-1-methyl-3-pyridinecarboxylic acid]
[5]; double blind study
  test of picture recognition: Significant improvement
[5]; patients with presenile primary degenerative dementia
  amelioration of symptoms of cognitive disorders: effective in ameliorating some of the symptoms of cognitive disorders
[4]
  reversal of scopolamine-induced swimming hyperactivity: can be reversed

## CNC(=O)Oc1ccc2c(c1)[C@]1(C)CCN(C)[C@@H]1N2C [physostigmine]
[4]
  reversal of scopolamine-induced swimming hyperactivity: can be reversed
[6]
  memory: improved memory

## CN1[C@@H]2C[C@@H](OC(=O)[C@H](CO)c3ccccc3)C[C@H]1[C@@H]1O[C@@H]12 [scopolamine]
[4]; scopolamine 0.1 mg/kg, five minute test period
  increase of swimming distance above baseline values: 75-125%
